Results from patent US20260144802A1, “POST-OPERATIVE DELIRIUM SUPPRESSANT” (priority 2022, published 2026).

Legend:
IL-1β mRNA = IL-1β mRNA expression in the hippocampus by RT-PCR after laparotomy; assay type: in vivo, rat; conditions: Example 4, 12 hours after surgery, vs laparotomy+solvent, FIG. 5
Description: (§1) Forty (40) SD male elderly rats of 19 to 24 months of age were randomly divided into a control group, an ALLO administration group, a laparotomy+solvent administration group, and a laparotomy+ALLO administration group by 10 rats.
Rats in the laparotomy group were subjected to laparotomy in the same manner as in Example 1. To rats in the laparotomy+ALLO administration group, 10 mg/kg of brexanolone was intraperitoneally administered immediately after surgery. To rats in the laparotomy+solvent administration group, only the same amount of solvent was administered instead of brexanolone.
Rats in the control group and the ALLO administration group were not subjected to laparotomy, and only subjected to anesthesia with isoflurane and local infiltration anesthesia with ropivacaine in the same manner. […]
Twelve (12) hours after surgery, the hippocampus, which is considered to be strongly related to an onset of post-operative delirium, was extracted, and mRNA expression levels of IL-1β and TNFα, which are inflammatory cytokines suspected to be related to an onset mechanism of post-operative delirium, were measured by an RT-PCR method. After the trace memory conditioning test of Example 1, the hippocampus was extracted at 48 hours after the laparotomy, and expression levels of IL-1 and TNFα in the hippocampus sample were measured by an ELISA method. […]

[1] = tested on: post-operative delirium model rats; experiment: Trace memory conditioning test (trace memory test and context memory test) in aged post-operative delirium model rats; assay type: in vivo, rat; conditions: SD male elderly rats with laparotomy, 10 mg/kg intraperitoneally immediately after surgery, vs laparotomy+solvent
Excerpt: as §1
Rats in the laparotomy+solvent administration group and the laparotomy+ALLO administration group were anesthetized with 1.5 to 2.0% isoflurane, and then underwent a median incision of 2 cm in the abdomen. The small intestine was pulled out by about 5 cm from the laparotomy site and extended with a finger for 3 minutes. Next, the abdomen was closed, and local infiltration anesthesia was applied to the wound with 0.2% ropivacaine for post-operative pain. To rats in the laparotomy+ALLO administration group, 10 mg/kg of brexanolone was intraperitoneally administered immediately after surgery. To rats in the laparotomy+solvent administration group, only the same amount of solvent was administered instead of brexanolone. […]
Twelve (12) hours after acquisition of memory of stimulation, a “trace memory test” was performed. Specifically, “only sound stimulation” was performed under different gauges, and freezing behavior at that time was measured.
Finally, 4 hours after the trace memory test, rats were placed under a cage similar to the initial memory acquisition cage and freezing behavior of the rats without stimulation was measured as a “context memory test”.

| Structure (SMILES) | relative expression level of IL-1β mRNA in the hippocampus (IL-1β mRNA; 3 mg/kg orally 30 minutes before anesthesia) | attention (proportion of freezing behavior time, trace memory test) ([1]; FIG. 1(1)) | cognitive abilities (freezing behavior, context memory test) ([1]; FIG. 1(2)) | relative expression level of IL-1β mRNA in the hippocampus (IL-1β mRNA; 10 mg/kg intraperitoneally 30 minutes before anesthesia) |
| --- | --- | --- | --- | --- |
| C[C@@]1(O)CC[C@H]2[C@H](CC[C@@H]3[C@@H]2CC[C@]2(C)[C@@H](C(=O)Cn4cc(C#N)cn4)CC[C@@H]32)C1 [zuranolone] | significantly reduce |  |  |  |
| CC(=O)[C@H]1CC[C@H]2[C@@H]3CC[C@H]4C[C@H](O)CC[C@]4(C)[C@H]3CC[C@]12C [brexanolone] |  | significantly higher | significantly higher | significantly reduce |
